# Source: US10870647B2, “Imidazopyridine derivative, method for preparing same, and pharmaceutical composition containing same as active ingredient for preventing or treating cancer” (DAEGU-GYEONGBUK MEDICAL INNOVATION FOUNDATION, priority 2016, dated 2020)
# Like-named read-outs stand apart in the source and are kept apart here.
# Experiments:
# Assay type in all cases: cell-based
# M-NFS-60 = assay: Cancer cell proliferation inhibition, CCK-8, 72 hours
# Protocol: MTS assay was performed to evaluate the cancer cell proliferation inhibition (cancer cell apoptosis) effect of the compounds of examples of the present invention. Particularly, the assay was performed using the cancer cell lines GIST-T1, GIST-T1/816, GIST-430, GIST-430/654, GIST-R1, GIST-R3, M-NFS-60, RetParental (Ba/F3), Retwt (Ba/F3), RetV804M (Ba/F3), RET (LC2/ad-CDC6), FYN (MCP-1), FYN (FN), MDA-MB-231, Huh7, K562, T315I(Ba/F3), SK-MEL-28 and A375. Cell culture was performed using a medium suitable for each cell line.
# M-NFS-60 cell line was cultured in the complete growth medium prepared by adding 10% FBS, 0.05 mM 2-mercaptoethanol and 62 ng of human M-CSF to RPMI. When the confluence reached 80% in T-75 flask, the cells were collected in a 50 ml tube for seeding, followed by centrifugation at 800 rpm for 5 minutes. The cells were suspended in 10 mL of growth medium. The cell number was counted by using a hematocytometer to determine the necessary cell number and the medium volume for seeding. The cells were seeded in a 96-well plate at the density of 20000 cells/well (200 μL/well), followed by stabilization in a 37° C. CO2 incubator, while the compounds of the present invention were prepared. The compounds of the present invention were serially diluted with DMSO at the ratio of 1/3 with setting the maximum concentration at 1968 nM, which were loaded in a new V-bottom 96-well plate, resulting in the preparation of total 11 concentrations including the DMSO control. The cells that had been placed in the incubator were taken out, to which the compounds of the present invention were added (2 μl/well). The plate treated with the compounds was cultured in a 37° C. CO2 incubator for 72 hours. 72 hours later, the plate treated with the compounds was taken out, to which CCK-8 solution was treated (20 μl/well). After well mixing, the plate was further cultured in a 37° C. CO2 incubator for 2 hours. Then, OD450 was measured by using a microplate reader. To obtain accurate results, the wells displaying bubbles were eliminated from the measurement.
# MDA-MB-231 = assay: Real time cell proliferation, IncuCyte ZOOM, 72 hours; details: Homo sapiens, MDA-MB-231, 72 h
# SK-MEL-28 = assay: Cancer cell proliferation inhibition, MTS assay, 72 hours; details: Homo sapiens
# Outline: (§1)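 Cells seeded at 3,000 cells/well in line-specific medium and grown 24 h at 37° C, 5% CO2, then exposed 72 h to serially diluted compound from 50 μM (0.05% DMSO). MTS/PMS added for 2 h at 37° C; OD450 read; IC50 from inhibition versus solvent control, three data sets.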
# FYN (MCP-1) = assay: as above
# Outline: as §1
# RET (LC2/ad-CDC6) = assay: as above
# Outline: as §1
# Huh7 = assay: as above; details: Homo sapiens, Huh-7
# Outline: as §1
# T315I (Ba/F3) = molecular target: T1, T315I (Ba/F3) (Homo sapiens, UniProt P00519, T315I, cells depend on it); assay: Cancer cell proliferation inhibition, CCK-8, 72 hours; details: read-out: T315I (Ba/F3) IC50
# T1 construct: fused on or other part: P11274 (Breakpoint cluster region protein)
# Outline: (§2)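 A375 cells (2×10^3/well) attached overnight, then received 9 three-fold dilutions (0.0015-10 μM). K562 and Ba/F3-T315I (1×10^4/well) were given 9-point series (3-fold and 5-fold respectively), final 0-10 μM. After 72 h at 37°C, CCK-8 was added for 2 h; blank-subtracted OD450 gave IC50.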
# K562 = assay: as above
# Outline: as §2
# A375 = assay: as above
# Outline: as §2
Compound,IC50 (M-NFS-60),IC50 (MDA-MB-231),IC50 (SK-MEL-28),IC50 (FYN (MCP-1)),IC50 (RET (LC2/ad-CDC6); 72 h),IC50 (Huh7),GI50 (T315I (Ba/F3)),"IC50 (K562; Homo sapiens, K562, 72 h)","IC50 (A375; Homo sapiens, A-375, 72 h)",IC50 (RET (LC2/ad-CDC6)),IC50 (K562),IC50 (A375)
"Cc1ccc(Nc2cccn3c(C#Cc4cc(C(=O)Nc5ccc(CN6CCN(C)CC6)c(C(F)(F)F)c5)ccc4C)cnc23)nc1 [Example 20, 4-methyl-N-(4-((4-methylpiperazin-1-yl)methyl)-3-(trifluoromethyl)phenyl)-3-((8-((5-methylpyridin-2-yl)amino)imidazo[1,2-a]pyridin-3-yl)ethynyl)benzamide]",1060 nM,1560 nM,1450 nM,1330 nM,< 100 nM,1750 nM,234 nM,14 nM,3360 nM,,,
"CCn1cc(Nc2cccn3c(C#Cc4cc(C(=O)Nc5ccc(CN6CCN(C)CC6)c(C(F)(F)F)c5)ccc4C)cnc23)cn1 [Example 22, 3-((8-((1-ethyl-1H-pyrazol-4-yl)amino)imidazo[1,2-a]pyridin-3-yl)ethynyl)-4-methyl-N-(4-((4-methylpiperazin-1-yl)methyl)-3-(trifluoromethyl)phenyl)benzamide]",56.2 nM,318 nM,803 nM,320 nM,< 10 nM,91 nM,37.5 nM,< 1 nM,140 nM,,,
"CCN1CCN(Cc2ccc(NC(=O)c3ccc(C)c(C#Cc4cnc5c(Nc6cnn(CC)c6)cccn45)c3)cc2C(F)(F)F)CC1 [Example 23, 3-((8-((1-ethyl-1H-pyrazol-4-yl)amino)imidazo[1,2-a]pyridin-3-yl)ethynyl)-N-(4-((4-ethylpiperazin-1-yl)methyl)-3-(trifluoromethyl)phenyl)-4-methylbenzamide]",,342 nM,917 nM,270 nM,< 10 nM,73.8 nM,39 nM,< 1 nM,142 nM,,,
"Cc1ccc(C(=O)Nc2ccc(CN3CCN(C)[C@H](C)C3)c(C(F)(F)F)c2)cc1C#Cc1cnc2c(Nc3cnn(C(C)C)c3)cccn12 [Example 29, (R)—N-(4-((3,4-dimethylpiperazin-1-yl)methyl)-3-(trifluoromethyl)phenyl)-3-((8-((1-isopropyl-1H-pyrazol-4-yl)amino)imidazo[1,2-a]pyridin-3-yl)ethynyl)-4-methylbenzamide]",,963 nM,717 nM,3130 nM,,30 nM,102 nM,,,< 100 nM,5 nM,292 nM
"Cc1ccc(C(=O)Nc2ccc(CN3CCN(C)[C@H](C)C3)c(C(F)(F)F)c2)cc1C#Cc1cnc2c(Nc3cnn(C)c3)cccn12 [Example 31, (R)—N-(4-((3,4-dimethylpiperazin-1-yl)methyl)-3-(trifluoromethyl)phenyl)-4-methyl-3-((8-((1-methyl-1H-pyrazol-4-yl)amino)imidazo[1,2-a]pyridin-3-yl)ethynyl)benzamide]",63.6 nM,212 nM,482 nM,770 nM,,64 nM,54.2 nM,< 1 nM,152 nM,,,
"Cc1ccc(C(=O)Nc2ccc(CN3CCC(N(C)C)C3)c(C(F)(F)F)c2)cc1C#Cc1cnc2c(Nc3cnn(C)c3)cccn12 (stereo not drawn) [Example 32, N-(4-((3-(dimethylamino)pyrrolidin-1-yl)methyl)-3-(trifluoromethyl)phenyl)-4-methyl-3-((8-((1-methyl-1H-pyrazol-4-yl)amino)imidazo[1,2-a]pyridin-3-yl)ethynyl)benzamide]",64.2 nM,456 nM,1150 nM,890 nM,,107 nM,60.4 nM,< 1 nM,406 nM,,,
"CCN1CCN(Cc2ccc(NC(=O)c3ccc(C)c(C#Cc4cnc5c(Nc6cnn(CCCN(C)C)c6)cccn45)c3)cc2C(F)(F)F)CC1 [Example 33, 3-((8-((1-(3-(dimethylamino)propyl)-1H-pyrazol-4-yl)amino)imidazo[1,2-a]pyridin-3-yl)ethynyl)-N-(4-((4-ethylpiperazin-1-yl)methyl)-3-(trifluoromethyl)phenyl)-4-methylbenzamide]",32.1 nM,444 nM,,2040 nM,,82 nM,156 nM,< 1 nM,452 nM,,,
"Cc1ccc(C(=O)Nc2ccc(CN3CCC(N(C)C)C3)c(C(F)(F)F)c2)cc1C#Cc1cnc2c(Nc3cnn(CCCN(C)C)c3)cccn12 (stereo not drawn) [Example 35, 3-((8-((1-(3-(dimethylamino)propyl)-1H-pyrazol-4-yl)amino)imidazo[1,2-a]pyridin-3-yl)ethynyl)-N-(4-((3-(dimethylamino)pyrrolidin-1-yl)methyl)-3-(trifluoromethyl)phenyl)-4-methylbenzamide]",,1110 nM,,1120 nM,,66 nM,247 nM,< 1 nM,1280 nM,,,
"Cc1ccc(C(=O)Nc2ccc(CN3CCC(F)(F)CC3)c(C(F)(F)F)c2)cc1C#Cc1cnc2c(Nc3cnn(C)c3)cccn12 [Example 52, N-(4-((4,4-difluoropiperidin-1-yl)methyl)-3-(trifluoromethyl)phenyl)-4-methyl-3-((8-((1-methyl-1H-pyrazol-4-yl)amino)imidazo[1,2-a]pyridin-3-yl)ethynyl)benzamide]",,> 10000 nM,,9520 nM,> 10 nM,,195 nM,16 nM,> 10000 nM,,,
"CN1CCN(Cc2ccc(NC(=O)c3cccc(C#Cc4cnc5c(Nc6cnn(C)c6)cccn45)c3)cc2C(F)(F)F)CC1 [Example 60, 3-((8-((1-methyl-1H-pyrazol-4-yl)amino)imidazo[1,2-a]pyridin-3-yl)ethynyl)-N-(4-((4-methylpiperazin-1-yl)methyl)-3-(trifluoromethyl)phenyl)benzamide]",21.3 nM,289 nM,,1470 nM,> 10 nM,,34.8 nM,< 1 nM,229 nM,,,
"CN1CCN(Cc2ccc(NC(=O)c3ccc(F)c(C#Cc4cnc5c(Nc6cnn(C)c6)cccn45)c3)cc2C(F)(F)F)CC1 [Example 61, 4-fluoro-3-((8-((1-methyl-1H-pyrazol-4-yl)amino)imidazo[1,2-a]pyridin-3-yl)ethynyl)-N-(4-((4-methylpiperazin-1-yl)methyl)-3-(trifluoromethyl)phenyl)benzamide]",45.3 nM,268 nM,,1170 nM,> 10 nM,,58.6 nM,< 1 nM,172 nM,,,
"Cc1ccc(NC(=O)c2ccc(CN3CCN(C)CC3)c(C(F)(F)F)c2)cc1C#Cc1cnc2c(Nc3cnn(C)c3)cccn12 [Example 80, N-(4-methyl-3-((8-((1-methyl-1H-pyrazol-4-yl)amino)imidazo[1,2-a]pyridin-3-yl)ethynyl)phenyl)-4-((4-methylpiperazin-1-yl)methyl)-3-(trifluoromethyl)benzamide]",46 nM,320 nM,,1870 nM,,89 nM,82.4 nM,< 1 nM,132 nM,,,
